Results reported in patent US5994629A, “Positive selection” (priority 1991, dated 1999).

Assays:
[1] = system: non-transformed potato stem segments; test: Inhibition by mannose of regeneration of shoots; format: cell-based, Solanum tuberosum
Method: This substrate is referred to hereafter as "selection/regeneration substrate". Regenerated plants are produced as described above, except that the shoot segments are not co-cultured with bacteria and the washing procedure consequential thereon is omitted. […] In general, mannose cannot be used as a carbohydrate source in most plant species. When mannose is added to plants it is metabolized and mannose 6-phosphate accumulates. Mannose 6-phosphate can be converted to fructose 6-phosphate by mannose 6-phosphate isomerase, the amount converted being dependent upon the activity of the isomerase. Such fructose 6-phosphate may be utilized by plants, but in principal high levels of mannose (whether or not an alternative carbohydrate source is available) are toxic to plants.

Wild type explants = test: Regenerated shoots selected by compounds in addition to mannose, wild type; format: cell-based; conditions: genotype Wild type
[2] = system: explants with the mannose 6-phosphate isomerase gene from E. coli; test: Regenerated shoots selected by compounds in addition to mannose, M-6-P-isomerase; format: cell-based; conditions: genotype M-6-P-isomerase
maize callus cultures = conditions: callus cultures of 4 maize lines; 0-20 g/L; three weeks
immature maize embryos = test: Mannose selection of bombarded immature maize embryos; format: cell-based; conditions: selection on 10 g/L D-mannose for 3 weeks; 420 embryos
maize protoplasts = test: Mannose selection in maize protoplast PEG-mediated transformation; format: cell-based; conditions: 2% mannose for one to two weeks; 47/17 million protoplasts
[3] = system: plant material transgenic for the mannose 6-phosphate isomerase gene; test: Effect of methyl-3-O-glucose on selection of transgenic shoots on mannose; format: cell-based; conditions: mannose 15 g/l; MOG 0 g/l; no sucrose
Source text: The transformed plant material is transgenic for the mannose 6-phosphate isomerase gene. After 21 days the selected shoots are harvested.

Compound: O=C[C@@H](O)[C@@H](O)[C@H](O)[C@H](O)CO [mannose, D-mannose]
- Regenerated shoots/explant (%) ([1]; sucrose 0 g/l, mannose 5 g/l, up to 40th day): 0%
- Regenerated shoots/explant (%) ([1]; sucrose 0 g/l, mannose 10 g/l): 0%
- Regenerated shoots/explant (%) ([1]; sucrose 0 g/l, mannose 20 g/l): 0%
- Regenerated shoots/explant (%) ([1]; sucrose 10 g/l, mannose 5 g/l): 3%
- Regenerated shoots/explant (%) ([1]; sucrose 10 g/l, mannose 10 g/l): 0%
- Regenerated shoots/explant (%) ([1]; sucrose 10 g/l, mannose 20 g/l): 0%
- Regenerated shoots/explant (%) ([1]; sucrose 20 g/l, mannose 5 g/l): 0%
- Regenerated shoots/explant (%) ([1]; sucrose 20 g/l, mannose 10 g/l): 0%
- Regenerated shoots/explant (%) ([1]; sucrose 20 g/l, mannose 20 g/l): 0%
- Number of regenerated shoots per explant (Wild type explants): 0
- Number of regenerated shoots per explant [2]: 1.1
- utilization as carbohydrate source, in words (maize callus cultures): cannot be utilized as the sole carbohydrate source
- % transformation (immature maize embryos): 2.9%
- stable transformation frequency (maize protoplasts): 0.00028%
- GUS+ shoots/explant [3]: 0
- GUS+ shoots/sel. shoots (%) [3]: 0%
